Reference: patent US20100298141A1, “SUBSTITUTED PYRIDINE N-OXIDE HERBICIDES” (E. I. DU PONT DE NEMOURS AND COMPANY, priority 2007, published 2010)

Legend:
soybean = assay: Test C pre-/postemergence test; assay type: in vivo, Glycine max; conditions: Preemergence; for Soybean plant response rating: 62 g ai/ha, scale 0 to 100
Method in brief: (§1)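 Test chemicals were formulated with surfactant in a non-phytotoxic solvent and sprayed both on freshly planted seeds (preemergence) and on 1- to 4-leaf plants of 2–18 cm (postemergence). Flooded-paddy pots received compound directly into 3 cm of standing water, maintained for the test.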

lambsquarters = assay: Test C pre-/postemergence test; assay type: in vivo, Chenopodium album; conditions: Preemergence; for Lambsquarters plant response rating: 62 g ai/ha, scale 0 to 100; for Plant response rating, Lambsquarters: 31 g ai/ha, scale 0 to 100 (0 no effect, 100 complete control)
Method in brief: as §1

blackgrass = assay: Test C pre-/postemergence test; assay type: in vivo, Alopecurus myosuroides; conditions: for Plant response rating, Blackgrass: 31 g ai/ha, scale 0 to 100 (0 no effect, 100 complete control); for Plant response rating (0 to 100), Blackgrass: 250 g ai/ha
Method in brief: as §1

rice = assay: Test C flooded paddy test; assay type: in vivo, Oryza sativa; conditions: Flood
Method in brief: (§2)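 Flooded 3 cm over soil; compound into paddy water; depth kept constant. Greenhouse 13–15 d.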

woolly cupgrass = assay: Test C pre-/postemergence test; assay type: in vivo, Eriochloa villosa; conditions: Preemergence; for Cupgrass, Woolly plant response rating: 62 g ai/ha, scale 0 to 100; for Plant response rating, Cupgrass, Woolly: 31 g ai/ha, scale 0 to 100 (0 no effect, 100 complete control); for Plant response rating (0 to 100), Cupgrass, Woolly: 250 g ai/ha
Method in brief: as §1

downy brome = assay: Test C pre-/postemergence test; assay type: in vivo, Bromus tectorum; conditions: for Plant response rating, Bromegrass, Downy: 31 g ai/ha, scale 0 to 100 (0 no effect, 100 complete control); for Plant response rating (0 to 100), Bromegrass, Downy: 250 g ai/ha
Method in brief: as §1

kochia = assay: Test C pre-/postemergence test; assay type: in vivo, Kochia scoparia; conditions: Preemergence; for Kochia plant response rating: 62 g ai/ha, scale 0 to 100; for Plant response rating, Kochia: 31 g ai/ha, scale 0 to 100 (0 no effect, 100 complete control)
Method in brief: as §1

morningglory = assay: Test A pre-/postemergence greenhouse test; assay type: in vivo, Ipomoea spp.; conditions: for Morningglory plant response rating: 0 to 100 scale; for Plant response rating, Morningglory: 0 to 100 scale where 0 is no effect and 100 is complete control
Method in brief: (§3)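 Test compounds in non-phytotoxic solvent with surfactant were applied as a preemergence soil spray to seeded loam/sand pots and, concurrently, postemergence to plants at 2–10 cm, one- to two-leaf stage. About ten days in greenhouse, then injury visually rated against untreated controls.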

wild oat = assay: Test C pre-/postemergence test; assay type: in vivo, Avena fatua; conditions: Preemergence; for Oat, Wild plant response rating: 62 g ai/ha, scale 0 to 100; for Plant response rating, Oat, Wild: 31 g ai/ha, scale 0 to 100 (0 no effect, 100 complete control)
Method in brief: as §1

bermudagrass = assay: Test C pre-/postemergence test; assay type: in vivo, Cynodon dactylon; conditions: for Plant response rating, Bermudagrass: 31 g ai/ha; for Plant response rating (0 to 100), Bermudagrass: 250 g ai/ha
Method in brief: as §1

green foxtail = assay: Test C pre-/postemergence test; assay type: in vivo, Setaria viridis; conditions: Preemergence; for Foxtail, Green plant response rating: 62 g ai/ha, scale 0 to 100; for Plant response rating, Foxtail, Green: 31 g ai/ha, scale 0 to 100 (0 no effect, 100 complete control)
Method in brief: as §1

catchweed bedstraw = assay: Test C pre-/postemergence test; assay type: in vivo, Galium aparine; conditions: Preemergence; for Galium plant response rating: 62 g ai/ha, scale 0 to 100; for Plant response rating, Galium: 31 g ai/ha, scale 0 to 100 (0 no effect, 100 complete control); for Plant response rating (0 to 100), Galium: 250 g ai/ha
Method in brief: as §1

redroot pigweed = assay: Test A pre-/postemergence greenhouse test; assay type: in vivo, Amaranthus retroflexus; conditions: for Pigweed plant response rating: 0 to 100 scale; for Plant response rating, Pigweed: 0 to 100 scale where 0 is no effect and 100 is complete control
Method in brief: as §3

yellow nutsedge = assay: Test C pre-/postemergence test; assay type: in vivo, Cyperus esculentus; conditions: Preemergence; for Nutsedge, Yellow plant response rating: 62 g ai/ha, scale 0 to 100; for Plant response rating, Nutsedge, Yellow: 31 g ai/ha, scale 0 to 100 (0 no effect, 100 complete control)
Method in brief: as §1

cocklebur = assay: Test C pre-/postemergence test; assay type: in vivo, Xanthium strumarium; conditions: for Plant response rating, Cocklebur: 31 g ai/ha, scale 0 to 100 (0 no effect, 100 complete control); for Plant response rating (0 to 100), Cocklebur: 250 g ai/ha
Method in brief: as §1

duck salad = assay: Test C flooded paddy test; assay type: in vivo, Heteranthera limosa; conditions: Flood
Method in brief: as §2

[1] = 31 g ai/ha, scale 0 to 100 (0 no effect, 100 complete control)
[2] = 62 g ai/ha, Preemergence, scale 0 to 100
[3] = preemergence, 125 g ai/ha, scale 0 (no effect) to 100 (complete control)
[4] = 62 g ai/ha, scale 0 to 100, 0 no effect, 100 complete control, 13 to 15 days
[5] = 125 g ai/ha, scale 0 to 100, 0 no effect, 100 complete control, 13 to 15 days
[6] = 250 g ai/ha, scale 0 to 100, 0 no effect, 100 complete control, 13 to 15 days
[7] = Postemergence, 125 g ai/ha, 0 is no effect, 100 is complete control
[8] = Postemergence, 500 g ai/ha, 0 is no effect, 100 is complete control
[9] = Preemergence, 125 g ai/ha, 0 no effect, 100 complete control
[10] = 62 g ai/ha, Preemergence, scale 0 to 100 (0 no effect, 100 complete control)
[11] = Preemergence, scale 0 to 100 (0 no effect, 100 complete control)

Cc1cc[n+]([O-])c(S(=O)(=O)Cc2c(C(F)(F)F)nn(C)c2OCC(F)(F)F)c1 [Compound 31]
Soybean plant response rating (soybean): 15 | Plant response rating, Soybean (soybean; [1]): 10 | Lambsquarters plant response rating (lambsquarters): 95 | Plant response rating, Lambsquarters (lambsquarters): 80 | Blackgrass plant response rating (blackgrass; [2]): 80 | Plant response rating, Blackgrass (blackgrass; Preemergence): 60 | Plant response rating (0 to 100), Blackgrass (blackgrass; Preemergence): 100 | Blackgrass plant response rating (blackgrass; [3]): 100 | Plant response rating, Rice (rice; [1]): 0 | Plant response rating, Rice (rice; [4]): 0 | Plant response rating, Rice (rice; [5]): 60 | Plant response rating, Rice (rice; [6]): 70 | Cupgrass, Woolly plant response rating (woolly cupgrass): 100 | Plant response rating, Cupgrass, Woolly (woolly cupgrass): 95 | Plant response rating (0 to 100), Cupgrass, Woolly (woolly cupgrass): 100 | Bromegrass, Downy plant response rating (downy brome; [2]): 50 | Plant response rating, Bromegrass, Downy (downy brome; Preemergence): 0 | Plant response rating (0 to 100), Bromegrass, Downy (downy brome; Preemergence): 80 | Bromegrass, Downy plant response rating (downy brome; [3]): 70 | Kochia plant response rating (kochia): 100 | Plant response rating, Kochia (kochia): 100 | Morningglory plant response rating (morningglory; [7]): 60 | Morningglory plant response rating (morningglory; [8]): 80 | Morningglory plant response rating (morningglory; [9]): 90 | Plant response rating, Morningglory (morningglory; Preemergence, 500 g ai/ha): 100 | Oat, Wild plant response rating (wild oat): 60 | Plant response rating, Oat, Wild (wild oat): 5 | Bermudagrass plant response rating (bermudagrass; [10]): 100 | Plant response rating, Bermudagrass (bermudagrass; [11]): 100 | Plant response rating (0 to 100), Bermudagrass (bermudagrass; Preemergence): 100 | Bermudagrass plant response rating (bermudagrass; [3]): 100 | Foxtail, Green plant response rating (green foxtail): 100 | Plant response rating, Foxtail, Green (green foxtail): 100 | Galium plant response rating (catchweed bedstraw): 100 | Plant response rating, Galium (catchweed bedstraw): 100 | Plant response rating (0 to 100), Galium (catchweed bedstraw): 100 | Pigweed plant response rating (redroot pigweed; [7]): 80 | Pigweed plant response rating (redroot pigweed; [8]): 80 | Pigweed plant response rating (redroot pigweed; [9]): 100 | Plant response rating, Pigweed (redroot pigweed; Preemergence, 500 g ai/ha): 100 | Nutsedge, Yellow plant response rating (yellow nutsedge): 100 | Plant response rating, Nutsedge, Yellow (yellow nutsedge): 60 | Cocklebur plant response rating (cocklebur; [2]): 0 | Plant response rating, Cocklebur (cocklebur; Preemergence): 0 | Plant response rating (0 to 100), Cocklebur (cocklebur; Preemergence): 50 | Cocklebur plant response rating (cocklebur; [3]): 40 | Plant response rating, Ducksalad (duck salad; [1]): 45 | Plant response rating, Ducksalad (duck salad; [4]): 45 | Plant response rating, Ducksalad (duck salad; [5]): 80 | Plant response rating, Ducksalad (duck salad; [6]): 90

CC(c1c(C(F)(F)F)nn(C)c1OCC(F)(F)F)S(=O)(=O)c1cccc[n+]1[O-] (racemic) [Compound 33]
Soybean plant response rating (soybean): 60 | Lambsquarters plant response rating (lambsquarters): 100 | Plant response rating, Lambsquarters (lambsquarters): 90 | Blackgrass plant response rating (blackgrass; [2]): 85 | Plant response rating, Blackgrass (blackgrass; Preemergence): 80 | Plant response rating (0 to 100), Blackgrass (blackgrass; Preemergence): 100 | Blackgrass plant response rating (blackgrass; [3]): 100 | Plant response rating, Rice (rice; [1]): 0 | Plant response rating, Rice (rice; [4]): 0 | Plant response rating, Rice (rice; [5]): 30 | Plant response rating, Rice (rice; [6]): 75 | Cupgrass, Woolly plant response rating (woolly cupgrass): 98 | Plant response rating, Cupgrass, Woolly (woolly cupgrass): 85 | Plant response rating (0 to 100), Cupgrass, Woolly (woolly cupgrass): 100 | Bromegrass, Downy plant response rating (downy brome; [2]): 20 | Plant response rating, Bromegrass, Downy (downy brome; Preemergence): 0 | Plant response rating (0 to 100), Bromegrass, Downy (downy brome; Preemergence): 98 | Bromegrass, Downy plant response rating (downy brome; [3]): 70 | Kochia plant response rating (kochia): 100 | Plant response rating, Kochia (kochia): 100 | Morningglory plant response rating (morningglory; [7]): 60 | Morningglory plant response rating (morningglory; [8]): 90 | Morningglory plant response rating (morningglory; [9]): 90 | Plant response rating, Morningglory (morningglory; Preemergence, 500 g ai/ha): 90 | Oat, Wild plant response rating (wild oat): 65 | Plant response rating, Oat, Wild (wild oat): 50 | Bermudagrass plant response rating (bermudagrass; [10]): 100 | Plant response rating, Bermudagrass (bermudagrass; [11]): 100 | Plant response rating (0 to 100), Bermudagrass (bermudagrass; Preemergence): 100 | Bermudagrass plant response rating (bermudagrass; [3]): 100 | Foxtail, Green plant response rating (green foxtail): 75 | Plant response rating, Foxtail, Green (green foxtail): 75 | Plant response rating (0 to 100), Foxtail, Green (green foxtail; 250 g ai/ha): 100 | Galium plant response rating (catchweed bedstraw): 100 | Plant response rating, Galium (catchweed bedstraw): 100 | Plant response rating (0 to 100), Galium (catchweed bedstraw): 100 | Pigweed plant response rating (redroot pigweed; [7]): 60 | Pigweed plant response rating (redroot pigweed; [8]): 90 | Pigweed plant response rating (redroot pigweed; [9]): 100 | Plant response rating, Pigweed (redroot pigweed; Preemergence, 500 g ai/ha): 100 | Nutsedge, Yellow plant response rating (yellow nutsedge): 100 | Plant response rating, Nutsedge, Yellow (yellow nutsedge): 100 | Cocklebur plant response rating (cocklebur; [2]): 0 | Plant response rating, Cocklebur (cocklebur; Preemergence): 0 | Plant response rating (0 to 100), Cocklebur (cocklebur; Preemergence): 45 | Cocklebur plant response rating (cocklebur; [3]): 40 | Plant response rating, Ducksalad (duck salad; [1]): 0 | Plant response rating, Ducksalad (duck salad; [4]): 0 | Plant response rating, Ducksalad (duck salad; [5]): 45 | Plant response rating, Ducksalad (duck salad; [6]): 95
